Molecules are shown by their SMILES. Counter-ions that a name gives are not always drawn.

The target of one experiment is HMG-CoA reductase. Put plainly: in-vitro HMG-CoA reductase enzyme assay ([14C]mevalonate formation, liver microsomes), Table 1. The format is biochemical. Conditions: preincubated 37° C. 30 minutes, [14C] HMG-CoA substrate. As for the experimental part:
(§1) Res. Comm., 50, 859 (1973).
(§2) HMG-CoA reductase is regarded as a rate-limiting enzyme in cholesterol biosynthesis, catalyzing the following reaction: [^14C]HMG-CoA+2NADPH+2H+[^14C]mevanolate+CoA+2NADP+microsomes, utilizing 2.5 mM [^14C] HMG-CoA as a substrate.
(§3) The reaction was carried out in presence of 100 mM KH2PO4, 20 mM G-6-P, 2.5 mM NADPH, 10 mM EDTA, 5 mM DTT and […], at 37° C. for 15 minutes and quantitating [^14C] mevalonate as an end product.
As for `COc1cc(NC(=O)c2c(-c3ccccc3)c(-c3ccc(F)cc3)n(CC[C@@H](O)C[C@@H](O)CC(=O)O)c2C(C)C)cc(OC)c1` [Example 1, 7-[3-(3,5-dimethoxyphenylcarbamoyl)-5-(4-fluorophenyl)-2-(1-methylethyl)4-phenyl-pyrrol-1-yl]-3R,5R-dihydroxy-heptanoic acid calcium salt], the concentration for half-maximal inhibition (IC50) (as a rule, the concentration at which inhibition is half-maximal) turned out to be 0.022 nM.
`COc1ccc(NC(=O)c2c(-c3ccccc3)c(-c3ccc(F)cc3)n(CC[C@@H](O)C[C@@H](O)CC(=O)O)c2C2CC2)c(OC)c1` [S.No. 3, 7-[3-(2,4-dimethoxyphenylcarbamoyl)-5-(4-fluorophenyl)-2-(cyclopropyl)-4-phenyl-pyrrol-1-yl]-3R,5R-dihydroxy-heptanoic acid calcium salt] returned an IC50 of 0.00948 nM.
Turning to `COc1ccc(NC(=O)c2c(-c3ccccc3)c(-c3ccccc3)n(CC[C@@H](O)C[C@@H](O)CC(=O)O)c2C(C)C)c(OC)c1` [S.No. 5, 7-[3-(2.4-dimethoxyphenylcarbamoyl)-4.5-diphenyl-2-(1-methylethyl-pyrrol-1-yl]-3R,5R-dihydroxy-heptanoic acid calcium salt], the IC50 came to 0.0563 nM.

A further experiment concerns the target HMG CoA Reductase. Description: HMG CoA reductase inhibition, similar experiments with phenylhydroxy compounds of U.S. Pat. No. 5,385,929, Table 2. Type of experiment: biochemical. The conditions noted are these: compared to atorvastatin. As for the experimental part:
as §1, §2, §3
Take `CC(C)c1c(C(=O)Nc2cccc(O)c2)c(-c2ccccc2)c(-c2ccc(F)cc2)n1CCC(O)CC(O)CC(=O)O` (stereo not drawn) [Meta-hydroxyatorvastatin]: the IC50 stood at 0.199 nM.
For `CC(C)c1c(C(=O)Nc2ccccc2O)c(-c2ccccc2)c(-c2ccc(F)cc2)n1CC[C@@H](O)C[C@@H](O)CC(=O)O` [Ortho-hydroxyatorvastatin], the half-maximal inhibitory concentration (IC50) turned out to be 0.264 nM.
The same measure, in the same setting: the same measure for `CC(C)c1c(C(=O)Nc2ccc(O)cc2)c(-c2ccccc2)c(-c2ccc(F)cc2)n1CC[C@@H](O)C[C@@H](O)CC(=O)O` [Para-hydroxyatorvastatin]: 0.476 nM.

The values are drawn from US20060211761A1, “Hmg-coa-reductase inhibitors” (priority 2002, published 2006).
